15 molecules from patent US20240238423A9, “TETRAHYDROISOQUINOLINE HETEROBIFUNCTIONAL BCL-XL DEGRADERS” (Treeline Biosciences, Inc., priority 2022, published 2024) can be followed below.

For this assay, the target named is T1, Human BCL-XL protein (N-terminal HiBiT tagged BCL-XL in HT1080 cells) (Homo sapiens, UniProt Q07817).
T1 construct: expressed in transfected cells; host or cells: HT-1080 (ATCC CCL-121), stably transduced with lentivirus pLV-UBC-N-HiBiT-BCL-XL-PGK-puro and selected with puromycin
Briefly: HiBiT based degradation assay. The class given is cell-based. The settings on record: HT1080 cells expressing HiBiT-BCL-XL, 24 h; for Ymin (24 h): BCL-XL degradation normalized with DMSO control; for DC50: BCL-XL degradation, read-out: EC50 (24 h). An outline of the steps:
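This HiBiT degradation assay measured loss of BCL-XL in HT1080 cells that stably express an N-terminal HiBiT-BCL-XL fusion delivered by lentivirus. Cells were added to compound-spotted 384-well plates, and luminescence was read on a PHERAstar FSX reader. Signal was expressed relative to DMSO controls, curves were fitted by four-parameter logistic regression, and for hook-shaped curves the Ymin point served as the bottom plateau when calculating EC50.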

T1 sequence (Q07817 whole entry): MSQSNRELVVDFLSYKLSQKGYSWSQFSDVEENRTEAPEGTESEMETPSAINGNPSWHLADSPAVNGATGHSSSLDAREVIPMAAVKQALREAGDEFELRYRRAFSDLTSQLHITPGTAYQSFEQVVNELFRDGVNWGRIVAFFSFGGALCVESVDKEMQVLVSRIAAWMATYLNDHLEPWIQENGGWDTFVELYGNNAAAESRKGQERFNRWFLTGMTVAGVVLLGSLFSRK

For the molecule `Cc1c(OCCCCC2CCN(CC3CCN(c4ccc5c(C6CCC(=O)NC6=O)nn(C)c5c4)CC3)CC2)cccc1-c1ccc(N2CCc3cccc(C(=O)Nc4nc5ccccc5s4)c3C2)nc1C(=O)O` (stereo not drawn) [Compound 257, 6-[8-(1,3-benzothiazol-2-ylcarbamoyl)-3,4-dihydro-1H-isoquinolin-2-yl]-3-[3-[4-[1-[[1-[3-(2,6-dioxo-3-piperidyl)-1-methyl-indazol-6-yl]-4-piperidyl]methyl]-4-piperidyl]butoxy]-2-methyl-phenyl]pyridine-2-carboxylic acid], the “Ymin (24 h)” value was “A (Ymin < 50%)” and the DC50 was less than 100 nM.
For `Cc1c(OCCC2CCN(CC3CCN(c4ccc5c(C6CCC(=O)NC6=O)nn(C)c5c4)CC3)CC2)cccc1-c1ccc(N2CCc3cccc(C(=O)Nc4nc5ccccc5s4)c3C2)nc1C(=O)O` (stereo not drawn) [Compound 258, 6-[8-(1,3-benzothiazol-2-ylcarbamoyl)-3,4-dihydro-1H-isoquinolin-2-yl]-3-[3-[2-[1-[[1-[3-(2,6-dioxo-3-piperidyl)-1-methyl-indazol-6-yl]-4-piperidyl]methyl]-4-piperidyl]ethoxy]-2-methyl-phenyl]pyridine-2-carboxylic acid], in that order: “A (Ymin < 50%)” and less than 100 nM.
Regarding `Cc1c(O[C@H]2CC[C@H](CCC(=O)N3CCC(c4ccc5c(C6CCC(=O)NC6=O)nn(C)c5c4)CC3)CC2)cccc1-c1ccc(N2CCc3cccc(C(=O)Nc4nc5ccccc5s4)c3C2)nc1C(=O)O` (stereo partly drawn) [Compound 259a, 6-(8-(benzo[d]thiazol-2-ylcarbamoyl)-3,4-dihydroisoquinolin-2(1H)-yl)-3-(3-(((1r,4r)-4-(3-(4-(3-(2,6-dioxopiperidin-3-yl)-1-methyl-1H-indazol-6-yl)piperidin-1-yl)-3-oxopropyl)cyclohexyl)oxy)-2-methylphenyl)picolinic acid], the “Ymin (24 h)” value is “A (Ymin < 50%)” and the DC50 was less than 100 nM.
For `Cc1c(OCCCN2CCN(CC3CCC4(CC3)CN(c3cccc5c(C6CCC(=O)NC6=O)nn(C)c35)C4)CC2)cccc1-c1ccc(N2CCc3cccc(C(=O)Nc4nc5ccccc5s4)c3C2)nc1C(=O)O` (stereo not drawn) [Compound 260, 6-(8-(benzo[d]thiazol-2-ylcarbamoyl)-3,4-dihydroisoquinolin-2(1H)-yl)-3-(3-(3-(4-((2-(3-(2,6-dioxopiperidin-3-yl)-1-methyl-1H-indazol-7-yl)-2-azaspiro[3.5]nonan-7-yl)methyl)piperazin-1-yl)propoxy)-2-methylphenyl)picolinic acid], in that order: “A (Ymin < 50%)” and less than 100 nM.
For `Cc1c(OCCC2CCN(CC3CCN(c4cccc5c(C6CCC(=O)NC6=O)nn(C)c45)CC3)CC2)cccc1-c1ccc(N2CCc3cccc(C(=O)Nc4nc5ccccc5s4)c3C2)nc1C(=O)O` (stereo not drawn) [Compound 261, 6-[8-(1,3-benzothiazol-2-ylcarbamoyl)-3,4-dihydro-1H-isoquinolin-2-yl]-3-[3-[2-[1-[[1-[3-(2,6-dioxo-3-piperidyl)-1-methyl-indazol-7-yl]-4-piperidyl]methyl]-4-piperidyl]ethoxy]-2-methyl-phenyl]pyridine-2-carboxylic acid], in that order: “A (Ymin < 50%)” and less than 100 nM.
On the same counts, the results for `Cc1cc(OCCCC2(C)CCN(CC(=O)Nc3ccc4c(C5CCC(=O)NC5=O)nn(C)c4c3)CC2)ccc1-c1ccc(N2CCc3cccc(C(=O)Nc4nc5ccccc5s4)c3C2)nc1C(=O)O` (stereo not drawn) [Compound 264, 6-[8-(1,3-benzothiazol-2-ylcarbamoyl)-3,4-dihydro-1H-isoquinolin-2-yl]-3-[4-[3-[1-[2-[[3-(2,6-dioxo-3-piperidyl)-1-methyl-indazol-6-yl]amino]-2-oxo-ethyl]-4-methyl-4-piperidyl]propoxy]-2-methyl-phenyl]pyridine-2-carboxylic acid] are “A (Ymin < 50%)” and less than 100 nM.
On to `Cc1cc(OCC2CC3(CCN(CC(=O)Nc4ccc5c(C6CCC(=O)NC6=O)nn(C)c5c4)CC3)C2)ccc1-c1ccc(N2CCc3cccc(C(=O)Nc4nc5ccccc5s4)c3C2)nc1C(=O)O` (stereo not drawn) [Compound 265, 6-(8-(benzo[d]thiazol-2-ylcarbamoyl)-3,4-dihydroisoquinolin-2(1H)-yl)-3-(4-((7-(2-((3-(2,6-dioxopiperidin-3-yl)-1-methyl-1H-indazol-6-yl)amino)-2-oxoethyl)-7-azaspiro[3.5]nonan-2-yl)methoxy)-2-methylphenyl)picolinic acid], for which the “Ymin (24 h)” value is recorded as “A (Ymin < 50%)” and the DC50 was less than 100 nM.
On the same counts, the results for `Cc1c(OCCCC2(C)CCN(CC(=O)Nc3ccc4c(C5CCC(=O)NC5=O)nn(C)c4c3)CC2)cccc1-c1ccc(N2CCc3cccc(C(=O)Nc4nc5ccccc5s4)c3C2)nc1C(=O)O` (stereo not drawn) [Compound 267, 6-[8-(1,3-benzothiazol-2-ylcarbamoyl)-3,4-dihydro-1H-isoquinolin-2-yl]-3-[3-[3-[1-[2-[[3-(2,6-dioxo-3-piperidyl)-1-methyl-indazol-6-yl]amino]-2-oxo-ethyl]-4-methyl-4-piperidyl]propoxy]-2-methyl-phenyl]pyridine-2-carboxylic acid] are “A (Ymin < 50%)” and less than 100 nM.
On to `Cc1c(O[C@H]2CC[C@H](CCCN3CCC(c4ccc5c(C6CCC(=O)NC6=O)nn(C)c5c4)CC3)CC2)cccc1-c1ccc(N2CCc3cccc(C(=O)Nc4nc5ccccc5s4)c3C2)nc1C(=O)O` (stereo partly drawn) [Compound 269a, 6-(8-(benzo[d]thiazol-2-ylcarbamoyl)-3,4-dihydroisoquinolin-2(1H)-yl)-3-(3-(((1s,4r)-4-(3-(4-(3-(2,6-dioxopiperidin-3-yl)-1-methyl-1H-indazol-6-yl)piperidin-1-yl)propyl)cyclohexyl)oxy)-2-methylphenyl)picolinic acid], for which the “Ymin (24 h)” value was “A (Ymin < 50%)” and the DC50 is less than 100 nM.
For `Cc1c(O[C@H]2CC[C@H](CCCN3CCC(c4cccc5c(C6CCC(=O)NC6=O)nn(C)c45)CC3)CC2)cccc1-c1ccc(N2CCc3cccc(C(=O)Nc4nc5ccccc5s4)c3C2)nc1C(=O)O` (stereo partly drawn) [Compound 270a, 6-(8-(benzo[d]thiazol-2-ylcarbamoyl)-3,4-dihydroisoquinolin-2(1H)-yl)-3-(3-(((1s,4r)-4-(3-(4-(3-(2,6-dioxopiperidin-3-yl)-1-methyl-1H-indazol-7-yl)piperidin-1-yl)propyl)cyclohexyl)oxy)-2-methylphenyl)picolinic acid], in that order: “A (Ymin < 50%)” and less than 100 nM.
On to `Cc1c(O[C@H]2CC[C@H](CCCN3CCN(c4ccc5c(C6CCC(=O)NC6=O)nn(C)c5c4)C[C@H]3C)CC2)cccc1-c1ccc(N2CCc3cccc(C(=O)Nc4nc5ccccc5s4)c3C2)nc1C(=O)O` (stereo partly drawn) [Compound 273a, 6-(8-(benzo[d]thiazol-2-ylcarbamoyl)-3,4-dihydroisoquinolin-2(1H)-yl)-3-(3-(((1S,4r)-4-(3-((2R)-4-(3-(2,6-dioxopiperidin-3-yl)-1-methyl-1H-indazol-6-yl)-2-methylpiperazin-1-yl)propyl)cyclohexyl)oxy)-2-methylphenyl)picolinic acid], for which the “Ymin (24 h)” value is on record as “A (Ymin < 50%)” and the DC50 was less than 100 nM.
For `Cc1c(O[C@H]2CC[C@H](CCCN3CCN(c4ccc5c(C6CCC(=O)NC6=O)nn(C)c5c4)C[C@@H]3C)CC2)cccc1-c1ccc(N2CCc3cccc(C(=O)Nc4nc5ccccc5s4)c3C2)nc1C(=O)O` (stereo partly drawn) [Compound 273b, 6-(8-(benzo[d]thiazol-2-ylcarbamoyl)-3,4-dihydroisoquinolin-2(1H)-yl)-3-(3-(((1R,4r)-4-(3-((2S)-4-(3-(2,6-dioxopiperidin-3-yl)-1-methyl-1H-indazol-6-yl)-2-methylpiperazin-1-yl)propyl)cyclohexyl)oxy)-2-methylphenyl)picolinic acid], in that order: “A (Ymin < 50%)” and less than 100 nM.
For `Cc1c(O[C@H]2CC[C@H](CCCN3CCN(c4cccc5c(C6CCC(=O)NC6=O)nn(C)c45)[C@H](C)C3)CC2)cccc1-c1ccc(N2CCc3cccc(C(=O)Nc4nc5ccccc5s4)c3C2)nc1C(=O)O` (stereo partly drawn) [Compound 274a, 6-(8-(benzo[d]thiazol-2-ylcarbamoyl)-3,4-dihydroisoquinolin-2(1H)-yl)-3-(3-(((1S,4r)-4-(3-((3R)-4-(3-(2,6-dioxopiperidin-3-yl)-1-methyl-1H-indazol-7-yl)-3-methylpiperazin-1-yl)propyl)cyclohexyl)oxy)-2-methylphenyl)picolinic acid], in that order: “A (Ymin < 50%)” and less than 100 nM.
For `Cc1c(O[C@H]2CC[C@H](CCCN3CCN(c4cccc5c(C6CCC(=O)NC6=O)nn(C)c45)[C@@H](C)C3)CC2)cccc1-c1ccc(N2CCc3cccc(C(=O)Nc4nc5ccccc5s4)c3C2)nc1C(=O)O` (stereo partly drawn) [Compound 274b, 6-(8-(benzo[d]thiazol-2-ylcarbamoyl)-3,4-dihydroisoquinolin-2(1H)-yl)-3-(3-(((1R,4r)-4-(3-((3S)-4-(3-(2,6-dioxopiperidin-3-yl)-1-methyl-1H-indazol-7-yl)-3-methylpiperazin-1-yl)propyl)cyclohexyl)oxy)-2-methylphenyl)picolinic acid], in that order: “A (Ymin < 50%)” and less than 100 nM.
In the case of `Cc1c(O[C@H]2CC[C@H](CCCN3CCN(c4cccc5c(C6CCC(=O)NC6=O)nn(C)c45)C[C@H]3C)CC2)cccc1-c1ccc(N2CCc3cccc(C(=O)Nc4nc5ccccc5s4)c3C2)nc1C(=O)O` (stereo partly drawn) [Compound 275a, 6-(8-(benzo[d]thiazol-2-ylcarbamoyl)-3,4-dihydroisoquinolin-2(1H)-yl)-3-(3-(((1S,4r)-4-(3-((2R)-4-(3-(2,6-dioxopiperidin-3-yl)-1-methyl-1H-indazol-7-yl)-2-methylpiperazin-1-yl)propyl)cyclohexyl)oxy)-2-methylphenyl)picolinic acid], the “Ymin (24 h)” value is on record as “A (Ymin < 50%)” and the DC50 is less than 100 nM.
